{"source": "patent US8796302B2", "about": "(priority 2004, dated 2014)", "key": {"[1]": {"tested_on": "dopaminergic neurons in PHOX^+/+ and PHOX^−/− mouse neuron-glia cultures", "assay": "[3H]DA uptake in neuron-glia cultures of PHOX+/+ and PHOX−/− mice", "type": "cell-based", "conditions": "DM 10^−14 M, LPS 10 ng/ml", "experimental": "To further study the role of ROS in DM-elicited neuroprotection, neuron-glia cultures were prepared from NADPH oxidase-deficient (PHOX^−/−) and wild-type (PHOX^+/+) mice.\nNeurotoxicity was assessed by DA uptake as described in Example 1. TNFα production was measured by ELISA and iROS was determined by DCFDA as in Example 5. Results are expressed as a percentage of the control culture in FIG. 7A, pg/ml in FIG. 7B, and difference from control in FIG. 7C, respectively, and are the mean±S.E.M. of five individual experiments with triplicates in each experiment. *, P<0.05 compared with LPS culture.\nThe rat and mouse ventral mesencephalic neuron-glia cultures were prepared as in Example 1. […] DA neurotoxicity was measured by using the [^3H] DA uptake assay as in Example 1. The data are expressed as the percent of the control cultures and are the mean±SEM. The release of TNFα was measured with a commercially available enzyme-linked immunosorbent assay kit. *P<0.05, **P<0.01, compared to control. The amount of TNFα was measured as in Example 2."}, "[2]": {"tested_on": "CD-1 mice given LPS/GalN", "assay": "Survival in LPS/GalN endotoxic shock", "type": "in vivo, mouse", "conditions": "for Rate of survival % / No. of animals survived: 12 hrs; for Rate of survival: 30 min before and 2, 4 hr after LPS/GalN; for Rate of survival / Survived animal: 12 hours", "experimental": "Animal studies were performed in accordance with National Institutes of Health Guidelines and with the approval of the Institute's Animal Care and Use Committee, and followed NIH guidelines. Male, CD-1 mice (6-week-old) were purchased from Charles River laboratories, fed on a standard diet and with tap water ad libitum for two weeks. Environmental conditions were standardized, including a room temperature of 21° C. and 12 hours artificial lighting. Mice were fasted 12 hrs before use.\n(§1) Endotoxic shock was induced in the mice by administering a single intraperitoneal dose of lipopolysaccharide/D-(+/−)Glactosomine (Sigma, St. Louis, Mo.) (LPS/GalN) (20 μg/700 mg/kg) in saline. To test whether DM has protective effects on septic shock, varying concentrations (6.25, 12.5 and 25 mg/kg) of DM were injected into the mice subcutaneously 30 min before, and 2, and 4 hr after the injection of LPS/GalN. Control mice received the same amount of saline. At different time points, the animals were killed, and serum and liver samples were collected.\n(§2) To examine the therapeutic effects of DM, animals were treated with […] DM at 30 min before LPS/GalN injection, and 30, 60 and 120 min after LPS/GalN administration. Serum ALT was measured to evaluate the therapeutic effects of the DM. Survival rate was evaluated within 12 hours after endotoxin administration.\nEndotoxic shock were induced in mice in the same was as Example 16. The mice were given LPS/GalN (20 μg/700 mg/kg, ip) with or without the administration of DM (10 mg/kg, 1 μg/kg and 100 pg/kg, s.c.) 30 min before LPS/GalN. The survival rate of the animals was evaluated 12 hrs after LPS/GalN treatment."}, "[3]": {"tested_on": "CD-1 mice given LPS/GalN", "assay": "Serum ALT in LPS/GalN endotoxic shock", "type": "in vivo, mouse", "conditions": "for serum ALT level: 12 hrs after LPS/GalN", "experimental": "as §1, §2\nSerum alanine aminotransferase (ALT) activity was assayed as a marker of hepatocellular death using a commercially available kit (Infinite ALT, Sigma, St. Louis, Mo.). A portion of the liver was fixed in 10% neutral formalin, processed by standard histological techniques, stained with hematoxylin and eosin, and examined for morphological evidence of liver injury."}, "[4]": {"tested_on": "GDNF", "assay": "GDNF mRNA (real-time PCR) in primary astroglia", "type": "cell-based, rat", "conditions": "VPA 0.6 mM", "experimental": "Rat primary astroglias were exposed to 0.6 in M VPA for various times ranging from 6 to 48 hours. Total RNA was extracted from cells by Tri reagent (Sigma) and purified with RNeasy columns (Qiagen, Valencia, Calif.). Expression of the selected genes was quantified using real-time RT-PCR analysis. Briefly, total RNA was reverse transcribed with MuLV reverse transcriptase and oligo-dT primers. The forward and reverse primers for selected genes were designed using Primer Express software. The SYBR green DNA PCR kit (Applied Biosystems, Foster City, Calif.) was used for real-time PCR analysis. The relative differences in expression between groups were expressed using cycle time (Ct) values and the relative differences between groups were expressed as relative increases setting the control as 100%. Assuming that the Ct value is reflective of the initial starting copy and that there is 100% efficacy, a difference of one cycle is equivalent to a two-fold difference in the starting copy."}}}
{"smiles": "COc1ccc2c(c1)[C@@]13CCCC[C@H]1[C@@H](C2)N(C)CC3", "note": "[DM, d-3-methoxy-N-methylmorphinan]", "values": [{"measurement": "LPS-induced reduction of [3H]-dopamine uptake", "setting": "[1]; PHOX+/+ mice", "result": "significantly attenuated this decrease"}, {"measurement": "LPS-induced reduction of [3H]-dopamine uptake", "setting": "[1]; PHOX−/− mice", "result": "failed to show any protective effect"}, {"measurement": "Rate of survival %", "setting": "[2]; DM 100 pg/kg s.c. 30 min before LPS/GalN", "result": 76.6, "unit": "%"}, {"measurement": "No. of animals survived", "setting": "[2]; DM 100 pg/kg s.c., 47 animals in group", "result": 36}, {"measurement": "Rate of survival %", "setting": "[2]; DM 1 ug/kg s.c. 30 min before LPS/GalN", "result": 58.8, "unit": "%"}, {"measurement": "No. of animals survived", "setting": "[2]; DM 1 ug/kg s.c., 17 animals in group", "result": 10}, {"measurement": "Rate of survival", "setting": "[2]; DM 6.25 mg/kg", "result": 67, "unit": "%"}, {"measurement": "Rate of survival", "setting": "[2]; DM 6.25 mg/kg, listed as Dextromethorphan", "result": 66.6, "unit": "%"}, {"measurement": "Survived animal", "setting": "[2]; DM 6.25 mg/kg, n = 12", "result": 8}, {"measurement": "Rate of survival %", "setting": "[2]; DM 10 mg/kg s.c. 30 min before LPS/GalN", "result": 84.6, "unit": "%"}, {"measurement": "No. of animals survived", "setting": "[2]; DM 10 mg/kg s.c., 26 animals in group", "result": 22}, {"measurement": "Rate of survival", "setting": "[2]; DM 12.5 mg/kg", "result": "about 90%"}, {"measurement": "Rate of survival", "setting": "[2]; DM 12.5 mg/kg, listed as Dextromethorphan", "result": 89.3, "unit": "%"}, {"measurement": "Survived animal", "setting": "[2]; DM 12.5 mg/kg, n = 56", "result": 50}, {"measurement": "Rate of survival", "setting": "[2]; DM 25 mg/kg", "result": "about 90%"}, {"measurement": "Rate of survival", "setting": "[2]; DM 25 mg/kg, listed as Dextromethorphan", "result": 91.6, "unit": "%"}, {"measurement": "Survived animal", "setting": "[2]; DM 25 mg/kg, n = 12", "result": 11}, {"measurement": "protection against LPS/GalN-induced lethal shock", "setting": "[2]; DM 30 min post LPS/GalN challenge", "result": "also observed"}, {"measurement": "serum ALT level", "setting": "[3]; DM 12.5 mg/kg", "result": "about 25 % of LPS/GalN group"}, {"measurement": "serum ALT level", "setting": "[3]; DM 25 mg/kg", "result": "about 25 % of LPS/GalN group"}, {"measurement": "time-dependent reduction of serum ALT level", "setting": "[3]; DM 30 min pre-treatment and 30, 60, 120 min post-treatments", "result": "the later the DM treatment, the less protective"}]}
{"smiles": "CCCC(CCC)C(=O)O", "note": "[VPA, Valproic acid]", "values": [{"measurement": "GDNF mRNA levels", "setting": "[4]; 12 hours, control as 100%", "result": "about 180%"}, {"measurement": "GDNF mRNA levels", "setting": "[4]; 24 hours, control as 100%", "result": "~265", "unit": "%"}, {"measurement": "GDNF mRNA levels", "setting": "[4]; 48 hours", "result": "back to the control value"}]}
